Reference: the supplement of paper PMC10883282

How the values were obtained:
Test in all cases: relative viability vs DMSO control (72 h) (fraction); higher = more viable cells
SK-ES-1 = system: SK-ES-1
Outline: (§1)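 Relative viability is percent growth read by ATPLite and averaged over up to triplicate wells. Sarcoma cells were seeded in 384-well plates to reach 80–90% confluence and given 2.5 µl of serially diluted compound after 24 h, from source plates of 10 mM to 0.0002 mM. Incubation lasted 72 h at 37 °C, 5% CO2, with 0.1% DMSO vehicle and a 5 µM positive control, and the data were rescaled so 1 equals full and 0 equals none.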

SW982 = system: SW982
Outline: as §1

A204 = system: A204
Outline: as §1

MES-SA = system: MES-SA
Outline: as §1

RD = system: RD
Outline: as §1

HS729 = system: HS729
Outline: as §1

SK-LMS-1 = system: SK-LMS-1
Outline: as §1

SW1353 = system: SW1353
Outline: as §1

SW872 = system: SW872
Outline: as §1

G401 = system: G401
Outline: as §1

VA-ES-BJ = system: VA-ES-BJ
Outline: as §1

KHOS-240S = system: KHOS-240S
Outline: as §1

CC[C@@H]1C(=O)N(C)c2cnc(Nc3ccc(C(=O)N[C@H]4CC[C@H](N5CCN(CC6CC6)CC5)CC4)cc3OC)nc2N1C(C)C [Volasertib]
Details	relative viability
A204, 0.00017 µM	1.13
A204, 0.00051 µM	1.1
A204, 0.00152 µM	1.07
A204, 0.00457 µM	1.1
A204, 0.01372 µM	1.08
A204, 0.04115 µM	0.858
A204, 0.1235 µM	0.669
A204, 0.3704 µM	0.418
A204, 1.111 µM	0.253
A204, 3.333 µM	0.174
A204, 10 µM	0.0197
G401, 0.00017 µM	1.01
G401, 0.00051 µM	1.03
G401, 0.00152 µM	1.05
G401, 0.00457 µM	1.03
G401, 0.01372 µM	1.02
G401, 0.04115 µM	0.845
G401, 0.1235 µM	0.5129
G401, 0.3704 µM	0.427
G401, 1.111 µM	0.338
G401, 3.333 µM	0.243
G401, 10 µM	0.00683
HS729, 0.00017 µM	0.954
HS729, 0.00051 µM	0.995
HS729, 0.00152 µM	0.981
HS729, 0.00457 µM	0.954
HS729, 0.01372 µM	0.87
HS729, 0.04115 µM	0.685
HS729, 0.1235 µM	0.622
HS729, 0.3704 µM	0.657
HS729, 1.111 µM	0.641
HS729, 3.333 µM	0.612
HS729, 10 µM	0.0591
KHOS-240S, 0.00017 µM	1.07
KHOS-240S, 0.00051 µM	1.054
KHOS-240S, 0.00152 µM	1.06
KHOS-240S, 0.00457 µM	1.06
KHOS-240S, 0.01372 µM	0.979
KHOS-240S, 0.04115 µM	0.319
KHOS-240S, 0.1235 µM	0.221
KHOS-240S, 0.3704 µM	0.189
KHOS-240S, 1.111 µM	0.171
KHOS-240S, 3.333 µM	0.122
KHOS-240S, 10 µM	0.0197
MES-SA, 0.00017 µM	0.938
MES-SA, 0.00051 µM	0.966
MES-SA, 0.00152 µM	0.936
MES-SA, 0.00457 µM	0.932
MES-SA, 0.01372 µM	0.924
MES-SA, 0.04115 µM	0.637
MES-SA, 0.1235 µM	0.173
MES-SA, 0.3704 µM	0.0889
MES-SA, 1.111 µM	0.0861
MES-SA, 3.333 µM	0.072
MES-SA, 10 µM	0.0076
RD, 0.00017 µM	1.132
RD, 0.00051 µM	1.12
RD, 0.00152 µM	1.129
RD, 0.00457 µM	1.14
RD, 0.01372 µM	1.07
RD, 0.04115 µM	0.363
RD, 0.1235 µM	0.212
RD, 0.3704 µM	0.18
RD, 1.111 µM	0.169
RD, 3.333 µM	0.119
RD, 10 µM	0.0206
SK-ES-1, 0.00017 µM	1.09
SK-ES-1, 0.00051 µM	1.1
SK-ES-1, 0.00152 µM	1.08
SK-ES-1, 0.00457 µM	1.1
SK-ES-1, 0.01372 µM	1.05
SK-ES-1, 0.04115 µM	0.495
SK-ES-1, 0.1235 µM	0.0483
SK-ES-1, 0.3704 µM	0.0522
SK-ES-1, 1.111 µM	0.0871
SK-ES-1, 3.333 µM	0.114
SK-ES-1, 10 µM	0.0116
SK-LMS-1, 0.00017 µM	1.04
SK-LMS-1, 0.00051 µM	1.01
SK-LMS-1, 0.00152 µM	1.05
SK-LMS-1, 0.00457 µM	1.04
SK-LMS-1, 0.01372 µM	1
SK-LMS-1, 0.04115 µM	0.551
SK-LMS-1, 0.1235 µM	0.492
SK-LMS-1, 0.3704 µM	0.453
SK-LMS-1, 1.111 µM	0.459
SK-LMS-1, 3.333 µM	0.3806
SK-LMS-1, 10 µM	0.0152
SW872, 0.00017 µM	1.06
SW872, 0.00051 µM	1.03
SW872, 0.00152 µM	1.05
SW872, 0.00457 µM	1.08
SW872, 0.01372 µM	1.06
SW872, 0.04115 µM	0.623
SW872, 0.1235 µM	0.437
SW872, 0.3704 µM	0.269
SW872, 1.111 µM	0.176
SW872, 3.333 µM	0.0454
SW872, 10 µM	0.00513
SW982, 0.00017 µM	1.047
SW982, 0.00051 µM	1.07
SW982, 0.00152 µM	1.08
SW982, 0.00457 µM	1.06
SW982, 0.01372 µM	1.01
SW982, 0.04115 µM	0.353
SW982, 0.1235 µM	0.259
SW982, 0.3704 µM	0.209
SW982, 1.111 µM	0.182
SW982, 3.333 µM	0.15
SW982, 10 µM	0.0111
SW1353, 0.00017 µM	0.972
SW1353, 0.00051 µM	0.954
SW1353, 0.00152 µM	0.945
SW1353, 0.00457 µM	0.949
SW1353, 0.01372 µM	0.958
SW1353, 0.04115 µM	0.902
SW1353, 0.1235 µM	0.635
SW1353, 0.3704 µM	0.52
SW1353, 1.111 µM	0.4419
SW1353, 3.333 µM	0.3712
SW1353, 10 µM	0.063
VA-ES-BJ, 0.00017 µM	1.04
VA-ES-BJ, 0.00051 µM	1.04
VA-ES-BJ, 0.00152 µM	1.07
VA-ES-BJ, 0.00457 µM	1.06
VA-ES-BJ, 0.01372 µM	1.04
VA-ES-BJ, 0.04115 µM	0.486
VA-ES-BJ, 0.1235 µM	0.234
VA-ES-BJ, 0.3704 µM	0.108
VA-ES-BJ, 1.111 µM	0.0943
VA-ES-BJ, 3.333 µM	0.074
VA-ES-BJ, 10 µM	-0.00633
